Data: US11612580B2, “Compositions for inhibiting 3′ repair exonuclease 2 and methods of screening for such compositions” (THE BOARD OF REGENTS OF THE UNIVERSITY OF TEXAS SYSTEM, priority 2017, dated 2023)

Key:
msh2^−/− cells = test: puro(A)10 polymerase slippage assay, puromycin resistant colonies; format: cell-based, mouse; details: msh2^−/− cells with puro(A)10 reporter; 10 μM TREX2 inhibitor with puromycin; colonies counted about day 10; DMSO versus compounds p<0.02 (FIGS. 8B, 8C)
[1] = tested on: mouse embryonic stem (ES) cells; test: reduction of mutations in mouse embryonic stem (ES) cells; format: cell-based; details: hits from Chembridge Diverset screen
Excerpt: Assays as described here were used to screen a Chembridge Diverset library (30,000 compounds). […] These small molecules are: 4-benzoyl-2-methyphenyl (2-nitrophenoxy) acetate; N-benzyl-2-([bis(furan-2-yl)-1,2,4-triazin-3-yl] sulfanyl) acetamide; 6-(benzylcarbamoyl)-1-methycyclohex-3-ene-1-carboxylic acid; 8-(phenylamino)naphthalene-1-sulfonic acid; and benzyl 6-(furan-2-yl)-3-methyl-4-oxo-4,5,6,7-tetrahydro-1H-indole-2-carboxylate. […] TX2Is appear to be nontoxic to cells and TREX2-deletion was asymptomatic for >50% of life span.

SMILES: CC1(C(=O)O)CC=CCC1C(=O)NCc1ccccc1 (stereo not drawn) [Compound 11, 6-(benzylcarbamoyl)-1-methycyclohex-3-ene-1-carboxylic acid]
- spontaneous polymerase slippage (fraction of puromycin resistant cells) (msh2^−/− cells): reduce spontaneous polymerase slippage
- mutations in mouse embryonic stem (ES) cells [1]: reduce a range of mutations

SMILES: O=S(=O)(O)c1cccc2cccc(Nc3ccccc3)c12 [Compound 6, 8-(phenylamino)naphthalene-1-sulfonic acid]
- spontaneous polymerase slippage (fraction of puromycin resistant cells) (msh2^−/− cells): reduce spontaneous polymerase slippage
- mutations in mouse embryonic stem (ES) cells [1]: reduce a range of mutations

SMILES: Cc1c(C(=O)OCc2ccccc2)[nH]c2c1C(=O)CC(c1ccco1)C2 (stereo not drawn) [benzyl 6-(furan-2-yl)-3-methyl-4-oxo-4,5,6,7-tetrahydro-1H-indole-2-carboxylate]
- mutations in mouse embryonic stem (ES) cells [1]: reduce a range of mutations

SMILES: O=C(CSc1nnc(-c2ccco2)c(-c2ccco2)n1)NCc1ccccc1 [Compound 10, N-benzyl-2-([bis(furan-2-yl)-1,2,4-triazin-3-yl]sulfanyl) acetamide]
- spontaneous polymerase slippage (fraction of puromycin resistant cells) (msh2^−/− cells): reduce spontaneous polymerase slippage
- mutations in mouse embryonic stem (ES) cells [1]: reduce a range of mutations

SMILES: Cc1cc(C(=O)c2ccccc2)ccc1OC(=O)COc1ccccc1[N+](=O)[O-] [Compound 1, 4-benzoyl-2-methyphenyl (2-nitrophenoxy) acetate]
- spontaneous polymerase slippage (fraction of puromycin resistant cells) (msh2^−/− cells): reduce spontaneous polymerase slippage
- mutations in mouse embryonic stem (ES) cells [1]: reduce a range of mutations
